Assay results from patent US20150315154A1 (COUNCIL OF SCIENTIFIC & INDUSTRIAL RESEARCH, priority 2012, published 2015).

Key:
[1] = test system: CHO cells (Chinese hamstar ovarian cancer cells); assay: MTT cell viability assay, CHO cells; type: cell-based, Chinese hamster; conditions: CHO cell line; after 24 h as well as after 48 h
[2] = MTT cell viability assay, normal RAW 264.7 cells; type: cell-based; conditions: mouse, RAW 264.7 cells (non-cancerous mouse macrophage cells), after 24 and 48 h
[3] = test system: B16F10 cells (mouse melanoma); assay: FITC-Annexin V / PI flow cytometry apoptosis assay, B16F10 cells; type: cell-based; conditions: 25 μM/mL, 1:1:1 lipid:DOPC:Q16TG, 24 h
Text: (§1) Significant increase of both FITC (fluorescence isothio cyanate) and PE (phycoerythrin) signal in histidinylated lipid treated B16F10 cells confirm apoptosis inducing property of these lipids after 24 hrs. In a flow cytometric quadrant (FITC vs PE), the lower left=(LL) panel represents normal cells and lower right (LR) panel represents early apoptotic cells which increase FITC signal only. Whereas upper right (UR) panel represents late apoptotic cells which increases both FITC and PE signaling and upper left (UL) panel represents necrotic cell only which increases PE signal only. […]
(§2) To quantify apoptotic cell death, we studied the in vitro apoptosis induction efficacy of the presently disclosed histidinylated cationic amphiphiles in mouse melanoma (B16F10) and human lung carcinoma (A549) as model malignant cells by flow cytometry using the FITC-Annexin V Apoptosis Detection Kit (Sigma). […]
(§3) B16F10 & A549 cells were treated with all four histidinylated lipids and liposomal formulation of hydrophobic anti-cancer drug dexamethasone containing DOPC and the helper lipid Q16TG (in 1:1:1 mole ratio of histidinylated lipid:DOPC:Q16TG, 25 μM/mL). […] After 24 h of treatment, cells were stained with annexin V and PI (according to manufacturer protocol, Sigma) and analysed in a flow cytometer (BD FacsCanto II). […]

[4] = test system: A549 cells (human lung carcinoma); assay: FITC-Annexin V / PI flow cytometry apoptosis assay, A549 cells; type: cell-based; conditions: 25 μM/mL, 1:1:1 lipid:DOPC:Q16TG, 24 h
Text: as §1, with “FITC” for “FITC (fluorescence isothio cyanate)”, “PE” for “PE (phycoerythrin)”, “A549” for “B16F10”, “inducibility” for “inducing”, “left (LL)” for “left=(LL)”
as §2, §3

[5] = test system: mRNA of Bcl-2, Bcl-xL, BAX, Caspase 3, Caspase 9 in A549 cells; assay: Semi-quantitative RT-PCR of apoptosis related genes in A549 cells; type: cell-based, human; conditions: 25 μM/mL, 24 h, vs untreated cells
Method: FIG. 11 Describes reverse transcription-PCR analysis of (BAX, BAK, Caspase 3 & 9) and anti-apoptotic genes (Bcl-2, Bcl-xL & NF-kB) in A549 cells after 24 h treatment with histidinylated lipids. […] After 4 h the medium was discarded and 3 mL of DMEM medium (Sigma) containing 10% fetal bovine serum was added to each well and left for 24 h. After 24 h, mRNAs were extracted from all the cells, cDNA was synthesized by Reverse transcription reaction and amplified by Polymerase Chain Reaction and finally resolved in 2% agarose gel.
Next, toward obtaining mechanistic insights into the origin of the observed in-vitro apoptosis inducing properties of the presently disclosed histidinylated lipids, we conducted conventional RT-PCR (Reversed transcriptase polymerase chain reaction) assays. Effect of the histidinylated lipids on the mRNA expression of various apoptosis related genes were analyzed by RT-PCR. The human lung carcinoma (A549) cells as a reference, were treated with the liposomal formulations of the histidinylated lipid containing DOPC & helper lipid Q16TG (25 μM/mL) and untreated cells were used as control. After 24 h, the total mRNA was isolated by conventional method using trizol. RT-PCR products were resolved on a 2% agarose gel electrophoresis and visualized with ethidium bromide. Our findings are consistent with the apoptosis inducing abilities of the presently disclosed histidinylated lipids being mediated via inhibition of transcription of the anti-apoptotic Bcl-2 & Bcl-xL genes & via activation of pro-apoptotic BAX & BAK signal transduction pathways. […] 18S m-RNA was used as loading control for all these lanes (FIG. 11).
Semi-quantitative RT-PCR analysis was performed to measure the changes in gene expression of treated cells in contrast to the untreated cells. A549 cells (ATCC) were seeded at a density of 10^6 cells/well in a 6 well plate usually 18-24 h before transfection. […] Cells were washed with phosphate-buffered saline (PBS), pH 7.4 (1×100 μL) and the 1 mL liposomal solutions were added to the cells. […] Then the cells were incubated at a humidified atmosphere containing 5% CO2 at 37° C. for 24 h. After 24 h of transfection, lipoplex treated and untreated cells were lysed directly in 6-well plates with 1 mL of TRIzol® reagent (Invitrogen) following removal of media and washing with PBS (1 mL). The cells were dissolved in TRI Reagent and cell lysates were pipetted several times to clear the haziness. Cell lysates were taken in 1.5 mL centrifuge tubes, after 10 min 0.2 mL chloroform was added. The samples were covered tightly and shaken vigorously for 15 sec, incubated for 10 min at room temperature and centrifuged at 14,000×g for 15 min at 4° C. Following centrifugation, the mixture separates into a lower red phenol-chloroform phase, interphase and the colourless upper aqueous phase. RNA remains exclusively in the aqueous phase whereas DNA and proteins are in the interphase and organic phase. Aqueous phase was transferred in to a fresh tube; 0.8 mL of isopropanol was added and mixed with pipette, kept for 15 min at −20° C. and centrifuged at 20,000 g for 20 min at 4° C. The supernatant was removed and the RNA pellet was washed with 500 μL cold 75% ethanol and centrifuged at 20,000 g for 10 min at 4° C. Ethanol was aspirated out and the pellet air-dried by inverting the tube. Finally the RNA pellet was dissolved in 15 μL of DEPC treated water, the ODs measured at 260 and 280 nm and the concentrations and purities of RNAs were calculated.

B16F10 melanoma tumor = assay: Tumour growth inhibition assay, B16F10 melanoma in C57BL/6J mice; type: in vivo, mouse; conditions: liposomes 1:1:1 with DOPC:Q16TG injected at tumour site on day 14, 16, 18, 21, 24
[6] = test system: A549 cells (human lung carcinoma cells); assay: cells; conditions: A549, 24 h, read-out: cell viability
Text: (§4) The absorption obtained with reduced formazan with cells in the absence of lipids was taken to be 100. The assay was done after 24 (A) and 48 (B) hrs of the treatment.
(§5) The yellow tetrazolium salt (MTT) is reduced by mitochondrial dehydrogenase enzyme from metabolically active cells to form insoluble purple formazan crystals, which are solubilized by the addition of a mixture of DMSO & MeOH. The color can then be quantified by spectrophotometric method. For each cell type a linear relationship between cell number and absorbance is established, enabling accurate, straightforward quantification of changes in proliferation.
(§6) Cells were seeded at a density of 10000 (for B16F10, A549, MCF-7 & CHO) Or 15000 (for Raw264.7) per well in a 96-well plate for 18-24 h before the treatment. Cells were incubated with the liposomes of the presently described histidinylated cationic amphiphiles in the concentration range 40-16 μmol/mL in serum free medium. Immediately before the treatment, cells plated in the 96-well plate were washed with PBS (2×100 μL). After 4 h of incubation, the medium was replaced with fresh complete medium containing 10% FBS. The 10 μl of freshly prepared MTT solution in PBS (5 mg/mL) was added to each well of the plate after 24 or 48 h. The yellow tetrazolium salt (MTT) was reduced by mitochondrial dehydrogenase enzyme from metabolically active cells to form insoluble purple formazan crystals, which are solubilized by the addition of a mixture of DMSO & MeOH. The intensities of color were then quantified by spectrophotometric means. For each cell type a linear relationship between cell number and absorbance was established, enabling accurate, straightforward quantification of changes in proliferation.

in vitro = conditions: African green monkey, COS-1 cells (non-cancerous)
Text: as §4, §5, §6

[7] = test system: non-cancerous healthy COS-1 cells; conditions: normal COS-1 cells; after 24 and 48 h
Text: as §4, §5, §6

With CCCCCCCCCCCCCCCCOC(=O)C[C@H](NC(=O)[C@@H](N)Cc1c[nH]cn1)C(=O)OCCCCCCCCCCCCCCCC the cytotoxicity [1] was “most potent cytotoxicity”, the viability [2] was over 80% and the “apoptosis induction (annexin V / PI)” value [3] was “enhanced apoptosis”. For the same compound, the “apoptosis induction (annexin V / PI)” value [4] was “enhanced apoptosis”, the “Bcl-2 mRNA level” value [5] was “significantly decreased mRNA levels” and the “Bcl-xL mRNA level” value [5] was “significantly decreased mRNA levels”. For the same compound, the “Caspase 3 expression” value [5] was “up regulation”, the “Caspase 9 expression” value [5] was “up regulation” and the “expression of pro-apoptotic gene BAX” value [5] was “up regulation”. The tumor growth inhibition (B16F10 melanoma tumor) was “highest tumor growth inhibition”, the viability at 40 µM [6] was 20 to 40% and the viability (in vitro) was about 70%.
In the case of CCCCCCCCCCCCCCCCCCOC(=O)C[C@H](NC(=O)[C@@H](N)Cc1c[nH]cn1)C(=O)OCCCCCCCCCCCCCCCCCC, the viability [2] is reported as over 80%, the “Bcl-2 mRNA level” value [5] is reported as “did not show significant down regulation” and the “Bcl-xL mRNA level” value [5] is reported as “did not show significant down regulation”. For the same compound, the “Caspase 3 expression” value [5] was “up regulation”, the “Caspase 9 expression” value [5] was “up regulation” and the “expression of pro-apoptotic gene BAX” value [5] was “up regulation”. For the same compound, the tumor growth inhibition (B16F10 melanoma tumor) was “moderate tumour growth inhibition”, the viability at 40 µM [6] was 20 to 40% and the viability (in vitro) was about 70%.
With CCCCCCCCCCCCCCCCOC(=O)CC[C@H](NC(=O)[C@@H](N)Cc1c[nH]cn1)C(=O)OCCCCCCCCCCCCCCCC the cytotoxicity [1] was “most potent cytotoxicity”, the viability [2] was over 80% and the “apoptosis induction (annexin V / PI)” value [3] was “enhanced apoptosis”. The “apoptosis induction (annexin V / PI)” value [4] was “enhanced apoptosis”, the “Bcl-2 mRNA level” value [5] was “significantly decreased mRNA levels” and the “Bcl-xL mRNA level” value [5] was “significantly decreased mRNA levels”. For the same compound, the “Caspase 3 expression” value [5] was “up regulation”, the “Caspase 9 expression” value [5] was “up regulation” and the “expression of pro-apoptotic gene BAX” value [5] was “up regulation”. For the same compound, the tumor growth inhibition (B16F10 melanoma tumor) was “highest tumor growth inhibition”, the viability at 40 µM [6] was 20 to 40% and the viability (in vitro) was about 70%.
For CCCCCCCCCCCCCCCCCCOC(=O)CC[C@@H](NC(=O)[C@@H](N)Cc1ncc[nH]1)C(=O)OCCCCCCCCCCCCCCCCCC.Cl.Cl [HE-18, 2-((S)-2-ammonio-3-((R)-1,5-bis(octaadecyloxy)-1,5-dioxopentan-2-ylamino)-3-oxopropyl)-1H-imidazol-3-iumchloride], the cytotoxicity [1] was “most potent cytotoxicity”, the “Bcl-2 mRNA level” value [5] was “did not show significant down regulation” and the “Bcl-xL mRNA level” value [5] was “did not show significant down regulation”. For the same compound, the “Caspase 3 expression” value [5] was “up regulation”, the “Caspase 9 expression” value [5] was “up regulation” and the “expression of pro-apoptotic gene BAX” value [5] was “up regulation”. The tumor growth inhibition (B16F10 melanoma tumor) was “moderate tumour growth inhibition” and the cell viability [7] was about 70%.
